PMC10247784, “Physiological activation of human and mouse bitter taste receptors by bile acids” (Communications Biology, 2023)

Target: T1, mouse Tas2r108 (Mus musculus, UniProt Q9JKT3)
T1 construct: expressed in transfected cells; host or cells: HEK293T-Gα16gust44
T1 sequence (Q9JKT3 1-297): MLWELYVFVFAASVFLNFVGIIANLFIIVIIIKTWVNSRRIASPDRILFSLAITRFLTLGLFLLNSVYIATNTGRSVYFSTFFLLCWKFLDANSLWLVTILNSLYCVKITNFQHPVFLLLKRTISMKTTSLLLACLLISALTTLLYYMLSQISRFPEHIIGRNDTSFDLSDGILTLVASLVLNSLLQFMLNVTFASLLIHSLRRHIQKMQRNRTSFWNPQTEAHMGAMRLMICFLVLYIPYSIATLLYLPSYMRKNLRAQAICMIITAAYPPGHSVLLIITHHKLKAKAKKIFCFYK
Test: Calcium imaging assay (FLIPR), HEK293T-Gα16gust44 cells transfected with mouse Tas2r108
Format: cell-based
Details: for Δ F/F: Tas2r108
Procedure, shortened: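 Fluo-4 calcium responses; ΔF/F corrected for mock transfection and buffer control; triplicate independent dose-response runs; p < 0.01 threshold.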

In the case of `C[C@H](CCC(=O)NCCS(=O)(=O)O)[C@H]1CC[C@H]2[C@@H]3[C@H](O)C[C@@H]4C[C@H](O)CC[C@]4(C)[C@H]3C[C@H](O)[C@]12C` [Taurocholic Acid, taurocholic acid], the “Δ F/F” value (conc. 0,01 mM) is reported as 0.0164, the “Δ F/F” value (conc. 0,1 mM) is reported as 0.02829 and the “Δ F/F” value (conc. 0,03 mM) is reported as 0.01249. The “Δ F/F” value (conc. 0,3 mM) was 0.06351, the “Δ F/F” value (conc. 0,001 mM) was 0.009911 and the “Δ F/F” value (conc. 1 mM) was 0.1676. For the same molecule, the “Δ F/F” value (conc. 0,003 mM) was 0.0148, the RLU (Time 0 s) was 0 RLU and the RLU (Time 2 s) was -20.2593 RLU. It also gave an RLU (Time 4 s) of -40.462 RLU, an RLU (Time 6 s) of -30.0161 RLU and an RLU (Time 8 s) of -12.374 RLU. The RLU (Time 12 s) was -13.3496 RLU, the RLU (Time 14 s) was -6.544 RLU and the RLU (Time 16 s) was -15.3343 RLU. For the same molecule, the RLU (Time 18 s) was -11.3649 RLU, the RLU (Time 18.781 s) was 0.4416 RLU and the RLU (Time 20.781 s) was -36.0442 RLU. It also gave an RLU (Time 22.781 s) of -43.651 RLU, an RLU (Time 24.781 s) of -41.1365 RLU and an RLU (Time 26.781 s) of -18.6 RLU. The RLU (Time 28.781 s) was 11.2728 RLU, the RLU (Time 30.781 s) was 33.5132 RLU and the RLU (Time 32.781 s) was 71 RLU. The RLU (Time 34.781 s) was 95.3158 RLU, the RLU (Time 36.781 s) was 97.2719 RLU and the RLU (Time 38.781 s) was 144.173 RLU. It also gave an RLU (Time 40.781 s) of 134.881 RLU, an RLU (Time 42.781 s) of 146.815 RLU and an RLU (Time 44.781 s) of 188.478 RLU. The RLU (Time 46.781 s) was 187.465 RLU, the RLU (Time 48.781 s) was 214.327 RLU and the RLU (Time 50.781 s) was 211.162 RLU. It also gave an RLU (Time 52.781 s) of 236.861 RLU, an RLU (Time 54.781 s) of 237.067 RLU and an RLU (Time 56.781 s) of 230.295 RLU. The RLU (Time 58.781 s) was 253.142 RLU, the RLU (Time 60.781 s) was 220.824 RLU and the RLU (Time 62.781 s) was 245.001 RLU. For the same molecule, the RLU (Time 64.781 s) was 248.53 RLU, the RLU (Time 66.781 s) was 284.462 RLU and the RLU (Time 68.781 s) was 254.576 RLU. The RLU (Time 70.781 s) was 279.831 RLU, the RLU (Time 72.781 s) was 269.677 RLU and the RLU (Time 74.781 s) was 263.013 RLU. For the same molecule, the RLU (Time 76.781 s) was 268.161 RLU, the RLU (Time 78.781 s) was 271.517 RLU and the RLU (Time 80.781 s) was 261.286 RLU. For the same molecule, the RLU (Time 82.781 s) was 284.591 RLU, the RLU (Time 84.781 s) was 263.187 RLU and the RLU (Time 86.781 s) was 264.054 RLU. The RLU (Time 88.781 s) was 257.931 RLU, the RLU (Time 90.781 s) was 266.719 RLU and the RLU (Time 92.781 s) was 280.373 RLU. It also gave an RLU (Time 94.781 s) of 260.776 RLU, an RLU (Time 96.781 s) of 264.943 RLU and an RLU (Time 98.781 s) of 262.119 RLU. It also gave an RLU (Time 100.781 s) of 242.991 RLU, an RLU (Time 102.781 s) of 248.884 RLU and an RLU (Time 104.781 s) of 234.786 RLU. For the same molecule, the RLU (Time 106.781 s) was 246.521 RLU, the RLU (Time 108.781 s) was 245.379 RLU and the RLU (Time 110.781 s) was 221.773 RLU. It also gave an RLU (Time 112.781 s) of 255.593 RLU, an RLU (Time 114.781 s) of 236.786 RLU and an RLU (Time 116.781 s) of 246.038 RLU. For the same molecule, the RLU (Time 118.781 s) was 236.543 RLU, the RLU (Time 120.781 s) was 242.472 RLU and the RLU (Time 122.781 s) was 225.877 RLU. It also gave an RLU (Time 124.781 s) of 231.718 RLU, an RLU (Time 126.781 s) of 218.383 RLU and an RLU (Time 128.781 s) of 219.672 RLU. It also gave an RLU (Time 130.781 s) of 215.513 RLU, an RLU (Time 132.781 s) of 219.132 RLU and an RLU (Time 134.781 s) of 219.383 RLU. It also gave an RLU (Time 136.781 s) of 199.62 RLU, an RLU (Time 137.562 s) of 222.887 RLU and an RLU (Time 143.562 s) of 216.156 RLU. It also gave an RLU (Time 149.562 s) of 209.286 RLU, an RLU (Time 155.562 s) of 217.366 RLU and an RLU (Time 161.562 s) of 220.781 RLU. It also gave an RLU (Time 167.562 s) of 219.02 RLU, an RLU (Time 173.562 s) of 233.427 RLU and an RLU (Time 179.562 s) of 239.06 RLU. The RLU (Time 185.562 s) was 225.962 RLU, the RLU (Time 191.562 s) was 229.727 RLU and the RLU (Time 197.562 s) was 239.899 RLU. For the same molecule, the RLU (Time 203.562 s) was 214.938 RLU, the RLU (Time 209.562 s) was 251.411 RLU and the RLU (Time 215.562 s) was 226.847 RLU. The RLU (Time 221.562 s) was 216.644 RLU, the RLU (Time 227.562 s) was 259.359 RLU and the RLU (Time 233.562 s) was 219.243 RLU. It also gave an RLU (Time 239.562 s) of 236.142 RLU, an RLU (Time 245.562 s) of 237.626 RLU and an RLU (Time 293.562 s) of 221.03 RLU. It also gave an RLU (Time 299.562 s) of 234.317 RLU, an RLU (Time 305.562 s) of 241.837 RLU and an RLU (Time 311.562 s) of 254.495 RLU. For the same molecule, the RLU (Time 317.562 s) was 265.787 RLU, the RLU (Time 323.562 s) was 251.038 RLU and the RLU (Time 329.562 s) was 233.221 RLU. For the same molecule, the RLU (Time 335.562 s) was 247.117 RLU, the RLU (Time 341.562 s) was 273.956 RLU and the RLU (Time 347.562 s) was 268.956 RLU. The RLU (Time 353.562 s) was 264.083 RLU, the RLU (Time 359.562 s) was 275.281 RLU and the “Activation threshold concentration Tas2r108” value (p < 0.01 vs empty vector) was 100 µM.
